Assay results: ChEMBL document CHEMBL1909046, “DrugMatrix in vitro pharmacology data”

Legend:
Cytochrome P450 2A6 = molecular target: T1, Cytochrome P450 2A6 (Homo sapiens, UniProt P11509); details: bti-tn-5b1-4; also: in other assays of this panel Not Active means under 50% inhibition at 10 µM
T1 sequence (P11509 whole entry): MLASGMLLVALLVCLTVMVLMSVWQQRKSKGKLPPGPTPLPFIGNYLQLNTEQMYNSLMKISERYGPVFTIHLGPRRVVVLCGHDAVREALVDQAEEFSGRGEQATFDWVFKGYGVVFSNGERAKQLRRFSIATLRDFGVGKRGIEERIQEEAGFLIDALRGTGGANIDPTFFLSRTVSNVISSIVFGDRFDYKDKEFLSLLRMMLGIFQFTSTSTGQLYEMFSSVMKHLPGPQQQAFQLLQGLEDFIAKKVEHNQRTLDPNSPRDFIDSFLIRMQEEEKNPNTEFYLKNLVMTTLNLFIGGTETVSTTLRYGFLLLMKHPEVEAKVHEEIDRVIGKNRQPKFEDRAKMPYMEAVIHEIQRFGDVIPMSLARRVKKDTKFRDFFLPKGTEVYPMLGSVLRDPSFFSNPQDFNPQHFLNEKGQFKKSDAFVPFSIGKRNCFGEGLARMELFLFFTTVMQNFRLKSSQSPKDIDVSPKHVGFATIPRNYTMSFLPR

[1] = DRUGMATRIX: Platelet-Derived Growth Factor (PDGF) radioligand binding (ligand: [125I] PDGF); format: cell-based; details: nih3t3; Not Active = under 50% inhibition at 10 µM
[2] = DRUGMATRIX: Sigma2 radioligand binding (ligand: [3H] Ifenprodil); format: cell membranes, Rattus norvegicus, Wistar, Brain, Membrane; details: Not Active = under 50% inhibition at 10 µM
Leukotriene C4 synthase = molecular target: T2, Leukotriene C4 synthase (Cavia porcellus, UniProt A6XA80); format: tissue-based, Lung;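 also: enzyme inhibition assay of leukotriene C4 synthase, using LTA4 as the substrate; in other assays of this panel Not Active means under 50% inhibition at 10 µM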
T2 sequence (A6XA80 whole entry): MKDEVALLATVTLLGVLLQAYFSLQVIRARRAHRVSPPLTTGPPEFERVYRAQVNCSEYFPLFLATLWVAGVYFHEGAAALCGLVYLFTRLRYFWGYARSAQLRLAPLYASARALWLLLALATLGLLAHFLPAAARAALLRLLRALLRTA

Adenosine receptor A2a = Adenosine receptor A2a (Homo sapiens, UniProt P29274); experiment: DRUGMATRIX: Adenosine A2A radioligand binding (ligand: […]); format: cell membranes, Membrane; details: hek293; Not Active = under 50% inhibition at 10 µM
Sequence of Adenosine receptor A2a (P29274 whole entry): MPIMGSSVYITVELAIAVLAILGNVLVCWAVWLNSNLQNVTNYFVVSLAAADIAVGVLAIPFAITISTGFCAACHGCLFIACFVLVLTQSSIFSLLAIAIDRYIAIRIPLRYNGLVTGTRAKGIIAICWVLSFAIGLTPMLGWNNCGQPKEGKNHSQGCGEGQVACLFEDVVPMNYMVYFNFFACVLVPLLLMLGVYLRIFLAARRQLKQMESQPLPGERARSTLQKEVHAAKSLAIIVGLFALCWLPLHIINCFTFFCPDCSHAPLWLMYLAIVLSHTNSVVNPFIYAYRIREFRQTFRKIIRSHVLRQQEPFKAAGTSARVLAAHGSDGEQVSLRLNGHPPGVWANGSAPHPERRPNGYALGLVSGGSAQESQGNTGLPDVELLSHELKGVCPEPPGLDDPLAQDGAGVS

[3] = DRUGMATRIX: Calcium Channel Type L, Phenylalkylamine radioligand binding (ligand: [3H] (-)-Desmethoxyverapamil (D-888)); format: cell membranes, Rattus norvegicus, Wistar, Brain, Membrane; details: Not Active = under 50% inhibition at 10 µM
[4] = DRUGMATRIX: Tumor Necrosis Factor (TNF), Non-Selective radioligand binding (ligand: [125I] TNF-alpha); format: cell membranes, Membrane; details: u-937; Not Active = under 50% inhibition at 10 µM

CC[C@]1(O)C[C@H]2CN(CCc3c([nH]c4ccccc34)[C@@](C(=O)OC)(c3cc4c(cc3OC)N(C=O)[C@H]3[C@@](O)(C(=O)OC)[C@H](OC(C)=O)[C@]5(CC)C=CCN6CC[C@]43[C@@H]65)C2)C1 [VINCRISTINE]
Not Active: IC50 (Cytochrome P450 2A6) | Ki (Cytochrome P450 2A6) | IC50 [1] | Ki [1] | IC50 [2] | Ki [2] | IC50 (Leukotriene C4 synthase) | IC50 (Adenosine receptor A2a) | IC50 [3] | Ki [3] | IC50 [4] | Ki [4]

CCCOc1ccccc1-c1nc2nn[nH]c2c(=O)[nH]1 [ZAPRINAST]
Not Active: IC50 (Cytochrome P450 2A6) | Ki (Cytochrome P450 2A6) | IC50 [1] | Ki [1] | IC50 [2] | Ki [2] | IC50 (Leukotriene C4 synthase) | IC50 (Adenosine receptor A2a) | IC50 [3] | Ki [3] | IC50 [4] | Ki [4]

SODIUM NITROPRUSSIDE
Not Active: IC50 (Cytochrome P450 2A6) | Ki (Cytochrome P450 2A6) | IC50 [1] | Ki [1] | IC50 [2] | Ki [2] | IC50 (Leukotriene C4 synthase) | Ki (Leukotriene C4 synthase) | IC50 (Adenosine receptor A2a) | Ki (Adenosine receptor A2a) | IC50 [3] | Ki [3] | IC50 [4] | Ki [4]
